# Assay results: patent publication US8512709B2, “Modified amyloid β peptide” (The Chemo-Sero-Therapeutic Research Institue, priority 2008, dated 2013)
# System: Aβ peptide (1-40 amino acid sequence)
# Assay: Anti-Aβ IgG antibody titer of murine serum after immunization with Aβ peptides (ELISA on immobilized Aβ 1-40)
# Type: in vivo, C57BL/6 mice
# Conditions: for Antibody titer Animal No. 1 / Antibody titer Animal No. 2 / Antibody titer Animal No. 3 / Antibody titer Animal No. 4: C57BL/6 mouse serum, Day 7 from final 3rd immunization; for Antibody titer Animal No. 1 / Antibody titer Animal No. 2 / Antibody titer Animal No. 3 / Antibody titer Animal No. 4 / Antibody titer Mean: 100 μg/mouse; for Antibody titer Mean: mean of 4 mice, serum Day 7 from final 3rd immunization
# [1] = Example 7, result in words on Table 7
# [2] = Example 2, result in words on Table 2
# [3] = Example 8, result in words on Table 8
sequence,measurement,setting,value
"FRHDSGYKGAIIGLMVGC (added cysteine) [4-10•28-37AACys, 4-10+28-37-amino acid Aβ peptide with addition of Cysteine]",Antibody titer Animal No. 1,Example 4,24 ng/mL
same,Antibody titer Animal No. 2,Example 4,31 ng/mL
same,Antibody titer Animal No. 3,Example 4,53 ng/mL
same,Antibody titer Animal No. 4,Example 4,27 ng/mL
same,Antibody titer Mean,Example 4,33.8 ng/mL
"DAEFRHDSGYEVHHQKLVCFFAEDVGS [1-18Cys19-26AA, 26-amino acid Aβ peptide wherein cysteine is inserted between residues Nos. 18 and 19]",Antibody titer Animal No. 1,Example 7,127.5 ng/mL
same,Antibody titer Animal No. 2,Example 7,7001 ng/mL
same,Antibody titer Animal No. 3,Example 7,15779 ng/mL
same,Antibody titer Animal No. 4,Example 7,164 ng/mL
same,Antibody titer Mean,Example 7,5767.9 ng/mL
same,induction of an antibody to Aβ,[1],observed
"DAEFRHDSGYKGAIIGLMVGGC [1-10•28-38AACys, 1-10+28-38-amino acid Aβ peptide with addition of Cysteine]",Antibody titer Animal No. 1,Example 2,19149 ng/mL
same,Antibody titer Animal No. 2,Example 2,34270 ng/mL
same,Antibody titer Animal No. 3,Example 2,108780 ng/mL
same,Antibody titer Animal No. 4,Example 2,61824 ng/mL
same,Antibody titer Mean,Example 2,56005.8 ng/mL
same,induction of an antibody to Aβ,[2],observed
DAEFRHDSGYEVHHQKLVKGAIIGLMVGC [1-18•28-37AACys],Antibody titer Animal No. 1,Example 8,11 ng/mL
same,Antibody titer Animal No. 2,Example 8,9 ng/mL
same,Antibody titer Animal No. 3,Example 8,10 ng/mL
same,Antibody titer Animal No. 4,Example 8,13 ng/mL
same,Antibody titer Mean,Example 8,10.75 ng/mL
"DAEFRHDSGYEVHHQKLVCKGAIIGLMVGC [1-18Cys28-37AACys, Aβ residues 1-18, cysteine, Aβ residues 28-37, C-terminal cysteine]",Antibody titer Animal No. 1,Example 8,1073 ng/mL
same,Antibody titer Animal No. 2,Example 8,43 ng/mL
same,Antibody titer Animal No. 3,Example 8,10 ng/mL
same,Antibody titer Animal No. 4,Example 8,4864 ng/mL
same,Antibody titer Mean,Example 8,1497.5 ng/mL
same,induction of an antibody to Aβ,[3],observed
"DAEFRHDSGYGAIIGLMVGGVVIAC [1-10•29-42AACys, 1-10+29-42-amino acid Aβ peptide with addition of Cysteine]",Antibody titer Animal No. 1,Example 1,16 ng/mL
same,Antibody titer Animal No. 2,Example 1,16 ng/mL
same,Antibody titer Animal No. 3,Example 1,87 ng/mL
same,Antibody titer Animal No. 4,Example 1,11 ng/mL
same,Antibody titer Mean,Example 1,32.6 ng/mL
DAEFRHDSGYEVHHQKLVCFFAEDVGSNKC [1-18Cys19-28AACys],Antibody titer Animal No. 1,Example 6,19908 ng/mL
same,Antibody titer Animal No. 2,Example 6,361259 ng/mL
same,Antibody titer Animal No. 3,Example 6,4161 ng/mL
same,Antibody titer Animal No. 4,Example 6,29412 ng/mL
same,Antibody titer Mean,Example 6,103685.0 ng/mL
"DAEFRHDSGYKGAIIGLMVGGVC [1-10•28-39AACys, 1-10+28-39-amino acid Aβ peptide with addition of Cysteine]",Antibody titer Animal No. 1,Example 2,139361 ng/mL
same,Antibody titer Animal No. 2,Example 2,10808 ng/mL
same,Antibody titer Animal No. 3,Example 2,13326 ng/mL
same,Antibody titer Animal No. 4,Example 2,230453 ng/mL
same,Antibody titer Mean,Example 2,98487.0 ng/mL
same,induction of an antibody to Aβ,[2],observed
"DAEFRHDSGYKGAIIGLMC [1-10•28-35AACys, 1-10+28-35-amino acid Aβ peptide with addition of Cysteine]",Antibody titer Animal No. 1,Example 2,44 ng/mL
same,Antibody titer Animal No. 2,Example 2,19 ng/mL
same,Antibody titer Animal No. 3,Example 2,8361 ng/mL
same,Antibody titer Animal No. 4,Example 2,220 ng/mL
same,Antibody titer Mean,Example 2,2161.0 ng/mL
"DAEFRHDSGYEVHHQKLVCFFAEDVG [1-18Cys19-25AA, 25-amino acid Aβ peptide wherein cysteine is inserted between residues Nos. 18 and 19]",Antibody titer Animal No. 1,Example 7,1.5 ng/mL
same,Antibody titer Animal No. 2,Example 7,6.6 ng/mL
same,Antibody titer Animal No. 3,Example 7,71.4 ng/mL
same,Antibody titer Animal No. 4,Example 7,1398 ng/mL
same,Antibody titer Mean,Example 7,369.4 ng/mL
same,induction of an antibody to Aβ,[1],observed in one of four cases
"DAEFRHDSGYEVHHQKLVCKGAIIGLMVG [1-18Cys28-37AA, Aβ residues 1-18, cysteine, then Aβ residues 28-37]",Antibody titer Animal No. 1,Example 8,12541 ng/mL
same,Antibody titer Animal No. 2,Example 8,1964 ng/mL
same,Antibody titer Animal No. 3,Example 8,599 ng/mL
same,Antibody titer Animal No. 4,Example 8,25102 ng/mL
same,Antibody titer Mean,Example 8,10051.5 ng/mL
same,induction of an antibody to Aβ,[3],observed
